From patent publication US12325706B2, “Polymorphic form of sepiapterin” (PTC Therapeutics MP, Inc., priority 2016, dated 2025)

Assays:
[1] = Storage stability of sepiapterin polymorph forms, form change by XRD; assay type: physicochemical
Method: (§1) Form A and F samples were placed in chambers with silica gel to remove water (the relative humidity was measured to be ˜10% RH) at different temperatures. Form D samples were placed in chambers with water (relative humidity was estimated to be ˜100% RH) at different temperatures.
(§2) The HPLC purities and XRD patterns were obtained for each of Form A/F/D samples stored at various temperatures.

[2] = Storage stability of sepiapterin polymorph forms, HPLC purity; assay type: physicochemical; design: Impurity RRT 1.06 (HPLC) / Impurity RRT 1.08 (HPLC) / Impurity RRT 1.17 (HPLC) / Impurity RRT 1.21 (HPLC) / Impurity RRT 1.25 (HPLC) / Impurity RRT 0.62 (HPLC) / Impurity RRT 0.89 (HPLC) / Impurity RRT 0.95 (HPLC) / Impurity RRT 0.60 (HPLC): unit not given here; details: for Purity of initial samples by HPLC: before storage; for Stability on storage as determined by HPLC, comparison of forms in words: storage up to 4 weeks at RT
Method: as §1, §2
Samples of sepiapterin free base polymorph Forms D, F, and A were stored at room temperature (RT), 35° C., and 50° C. The samples were analyzed by HPLC at 1 week and 4 week intervals.

[3] = storage 1 week, 35° C., 100% RH
[4] = storage 1 week, 50° C., 100% RH
[5] = storage 4 weeks, 35° C., 100% RH
[6] = storage 4 weeks, 50° C., 100% RH
[7] = storage 4 weeks, 35° C., 10% RH
[8] = storage 4 weeks, 50° C., 10% RH
[9] = 35° C./10% RH, 1 w, listed as Polymorph F
[10] = 35° C./10% RH, 4 w, listed as Polymorph F
[11] = 50° C./10% RH, 1 w, listed as Polymorph F
[12] = 50° C./10% RH, 4 w, listed as Polymorph F
[13] = RT/10% RH, 1 w, listed as Polymorph F
[14] = RT/10% RH, 4 w, listed as Polymorph F

SMILES: C[C@H](O)C(=O)C1=Nc2c(nc(N)[nH]c2=O)NC1 [Form D, sepiapterin]
- Form change [1, 3]: No
- Form change [1, 4]: No
- Form change ([1]; storage 1 week, RT, 100% RH): No
- Form change [1, 5]: No
- Form change [1, 6]: No
- Form change ([1]; storage 4 weeks, RT, 100% RH): No
- Impurity RRT 0.62 (HPLC) ([2]; 35° C./100% RH, 1 w): <0.05
- Impurity RRT 0.95 (HPLC) ([2]; 35° C./100% RH, 1 w): 0.86
- Impurity RRT 1.08 (HPLC) ([2]; 35° C./100% RH, 1 w): 0.14
- Impurity RRT 1.17 (HPLC) ([2]; 35° C./100% RH, 1 w): 0.17
- Sepiapterin RRT 1.00 (HPLC), amount of sepiapterin ([2]; 35° C./100% RH, 1 w): 98.83%
- Impurity RRT 0.62 (HPLC) ([2]; 35° C./100% RH, 4 w): 0.09
- Impurity RRT 0.95 (HPLC) ([2]; 35° C./100% RH, 4 w): 1.04
- Impurity RRT 1.08 (HPLC) ([2]; 35° C./100% RH, 4 w): <0.05
- Impurity RRT 1.17 (HPLC) ([2]; 35° C./100% RH, 4 w): 0.17
- Sepiapterin RRT 1.00 (HPLC), amount of sepiapterin ([2]; 35° C./100% RH, 4 w): 98.70%
- Impurity RRT 0.62 (HPLC) ([2]; 50° C./100% RH, 1 w): 0.08
- Impurity RRT 0.95 (HPLC) ([2]; 50° C./100% RH, 1 w): 1.05
- Impurity RRT 1.08 (HPLC) ([2]; 50° C./100% RH, 1 w): 0.26
- Impurity RRT 1.17 (HPLC) ([2]; 50° C./100% RH, 1 w): 0.16
- Sepiapterin RRT 1.00 (HPLC), amount of sepiapterin ([2]; 50° C./100% RH, 1 w): 98.45%
- Impurity RRT 0.62 (HPLC) ([2]; 50° C./100% RH, 4 w): 0.14
- Impurity RRT 0.95 (HPLC) ([2]; 50° C./100% RH, 4 w): 2.03
- Impurity RRT 1.08 (HPLC) ([2]; 50° C./100% RH, 4 w): <0.05
- Impurity RRT 1.17 (HPLC) ([2]; 50° C./100% RH, 4 w): 0.18
- Sepiapterin RRT 1.00 (HPLC), amount of sepiapterin ([2]; 50° C./100% RH, 4 w): 97.65%
- Impurity RRT 1.08 (HPLC) ([2]; Initial): <0.05
- Impurity RRT 1.17 (HPLC) ([2]; Initial): 0.17
- Impurity RRT 0.62 (HPLC) ([2]; Initial, listed as Polymorph D): <0.05
- Impurity RRT 0.95 (HPLC) ([2]; Initial, listed as Polymorph D): 0.69
- Sepiapterin RRT 1.00 (HPLC), amount of sepiapterin ([2]; Initial, listed as Polymorph D): 99.14%
- Sepiapterin RRT 1.00 (HPLC), amount of sepiapterin ([2]; Initial, listed as polymorph D): 99.14%
- Impurity RRT 0.62 (HPLC) ([2]; RT/100% RH, 1 w): <0.05
- Impurity RRT 0.95 (HPLC) ([2]; RT/100% RH, 1 w): 0.83
- Impurity RRT 1.08 (HPLC) ([2]; RT/100% RH, 1 w): <0.05
- Impurity RRT 1.17 (HPLC) ([2]; RT/100% RH, 1 w): 0.16
- Sepiapterin RRT 1.00 (HPLC), amount of sepiapterin ([2]; RT/100% RH, 1 w): 99.01%
- Impurity RRT 0.62 (HPLC) ([2]; RT/100% RH, 4 w): 0.09
- Impurity RRT 0.95 (HPLC) ([2]; RT/100% RH, 4 w): 0.81
- Impurity RRT 1.08 (HPLC) ([2]; RT/100% RH, 4 w): <0.05
- Impurity RRT 1.17 (HPLC) ([2]; RT/100% RH, 4 w): 0.17
- Sepiapterin RRT 1.00 (HPLC), amount of sepiapterin ([2]; RT/100% RH, 4 w): 98.92%
- Purity of initial samples by HPLC [2]: 99.1 area %
- % of Initial [2, 3]: 99.7%
- Purity (area %) [2, 3]: 98.8 area %
- % of Initial [2, 4]: 99.3%
- Purity (area %) [2, 4]: 98.5 area %
- % of Initial ([2]; storage 1 week, RT, 100% RH): 99.9%
- Purity (area %) ([2]; storage 1 week, RT, 100% RH): 99.0 area %
- % of Initial [2, 5]: 99.6%
- Purity (area %) [2, 5]: 98.7 area %
- % of Initial [2, 6]: 98.5%
- Purity (area %) [2, 6]: 97.7 area %
- % of Initial ([2]; storage 4 weeks, RT, 100% RH): 99.8%
- Purity (area %) ([2]; storage 4 weeks, RT, 100% RH): 98.9 area %
- Stability on storage as determined by HPLC, comparison of forms in words ([2]; 35° C., 50° C., listed as polymorph D): significantly greater stability than polymorph A

SMILES: C[C@H](O)C(=O)C1=Nc2c(nc(N)[nH]c2=O)NC1 [Form F, sepiapterin]
- Form change ([1]; storage 1 week, 35° C., 10% RH): No
- Form change ([1]; storage 1 week, 50° C., 10% RH): No
- Form change ([1]; storage 1 week, RT, 10% RH): No
- Form change [1, 7]: No
- Form change [1, 8]: No
- Form change ([1]; storage 4 weeks, RT, 10% RH): No
- Impurity RRT 0.60 (HPLC) ([2]; 35° C./10% RH, 1 w): <0.05
- Impurity RRT 0.95 (HPLC) [2, 9]: 0.35
- Impurity RRT 1.08 (HPLC) [2, 9]: 0.06
- Impurity RRT 1.17 (HPLC) [2, 9]: 0.15
- Sepiapterin RRT 1.00 (HPLC), amount of sepiapterin [2, 9]: 99.43%
- Impurity RRT 0.60 (HPLC) ([2]; 35° C./10% RH, 4 w): <0.05
- Impurity RRT 1.08 (HPLC) ([2]; 35° C./10% RH, 4 w): <0.05
- Impurity RRT 0.95 (HPLC) [2, 10]: 0.42
- Impurity RRT 1.17 (HPLC) [2, 10]: 0.15
- Sepiapterin RRT 1.00 (HPLC), amount of sepiapterin [2, 10]: 99.43%
- Impurity RRT 0.60 (HPLC) ([2]; 50° C./10% RH, 1 w): <0.05
- Impurity RRT 0.95 (HPLC) [2, 11]: 0.58
- Impurity RRT 1.08 (HPLC) [2, 11]: 0.11
- Impurity RRT 1.17 (HPLC) [2, 11]: 0.15
- Sepiapterin RRT 1.00 (HPLC), amount of sepiapterin [2, 11]: 99.15%
- Impurity RRT 0.60 (HPLC) ([2]; 50° C./10% RH, 4 w): 0.12
- Impurity RRT 1.17 (HPLC) ([2]; 50° C./10% RH, 4 w): 0.17
- Impurity RRT 0.95 (HPLC) [2, 12]: 0.86
- Impurity RRT 1.08 (HPLC) [2, 12]: <0.05
- Sepiapterin RRT 1.00 (HPLC), amount of sepiapterin [2, 12]: 98.85%
- Sepiapterin RRT 1.00 (HPLC), amount of sepiapterin ([2]; 50° C./10% RH, 4 w, listed as polymorph F): 98.85%
- Impurity RRT 0.60 (HPLC) ([2]; Initial): <0.05
- Impurity RRT 1.08 (HPLC) ([2]; Initial): <0.05
- Impurity RRT 1.17 (HPLC) ([2]; Initial): 0.17
- Impurity RRT 0.95 (HPLC) ([2]; Initial, listed as Polymorph F): 0.09
- Sepiapterin RRT 1.00 (HPLC), amount of sepiapterin ([2]; Initial, listed as Polymorph F): 99.74%
- Sepiapterin RRT 1.00 (HPLC), amount of sepiapterin ([2]; Initial, listed as polymorph F): 99.74%
- Impurity RRT 0.60 (HPLC) ([2]; RT/10% RH, 1 w): <0.05
- Impurity RRT 1.17 (HPLC) ([2]; RT/10% RH, 1 w): 0.16
- Impurity RRT 0.95 (HPLC) [2, 13]: 0.29
- Impurity RRT 1.08 (HPLC) [2, 13]: 0.14
- Sepiapterin RRT 1.00 (HPLC), amount of sepiapterin [2, 13]: 99.42%
- Impurity RRT 0.60 (HPLC) ([2]; RT/10% RH, 4 w): <0.05
- Impurity RRT 1.08 (HPLC) ([2]; RT/10% RH, 4 w): <0.05
- Impurity RRT 1.17 (HPLC) ([2]; RT/10% RH, 4 w): 0.16
- Impurity RRT 0.95 (HPLC) [2, 14]: 0.30
- Sepiapterin RRT 1.00 (HPLC), amount of sepiapterin [2, 14]: 99.54%
- Purity of initial samples by HPLC [2]: 99.7 area %
- % of Initial ([2]; storage 1 week, 35° C., 10% RH): 99.7%
- Purity (area %) ([2]; storage 1 week, 35° C., 10% RH): 99.4 area %
- % of Initial ([2]; storage 1 week, 50° C., 10% RH): 99.4%
- Purity (area %) ([2]; storage 1 week, 50° C., 10% RH): 99.2 area %
- % of Initial ([2]; storage 1 week, RT, 10% RH): 99.7%
- Purity (area %) ([2]; storage 1 week, RT, 10% RH): 99.4 area %
- % of Initial [2, 7]: 99.7%
- Purity (area %) [2, 7]: 99.4 area %
- % of Initial [2, 8]: 99.1%
- Purity (area %) [2, 8]: 98.9 area %
- % of Initial ([2]; storage 4 weeks, RT, 10% RH): 99.8%
- Purity (area %) ([2]; storage 4 weeks, RT, 10% RH): 99.5 area %
- Stability on storage as determined by HPLC, comparison of forms in words ([2]; 35° C., 50° C., listed as polymorph F): significantly greater stability than polymorph A
